Consider two compounds from patent US20220211663A1, “NANO CO-DELIVERY OF QUERCETIN AND ALANTOLACTONE PROMOTES ANTI-TUMOR RESPONSE THROUGH SYNERGISTIC IMMUNOGENIC CELL DEATH FOR MICROSATELLITE-STABLE COLORECTAL CANCER” (The University of North Carolina at Chapel Hill, priority 2019, published 2022).

For series [1], the system named is orthotopic CT26-FL3 tumors. The series is described as follows: Orthotopic colon tumor growth inhibition and survival. The class given is in vivo, Balb/c mice. Particulars: i.v. four times every other day, Q 3 mg/kg, A 9 mg/kg. The procedure: An orthotopic CT26-FL3 colorectal tumor model was established in female Balb/c mice as reported previously. Song et al., 2018. Twenty-eight tumor-bearing mice were divided into seven random groups: PBS, free Q (Q-F), free A (A-F), combination of free Q and A (QA-F), Q-M, A-M and QA-M. Formulations were intravenously injected to mice once every 2 days by total four injections (i.v.) with a Q dose of 3 mg/kg and A dose of 9 mg/kg. Mice in PBS groups were injected with PBS as control. The tumor burden was detected by intraperitoneal (i.p.) injection of 100 μL of D-luciferin (Pierce™, 20 mg/mL) followed by bioluminescent analysis using an IVIS® Kinetics Optical System (Perkin Elmer, Calif.). The tumor growth and body weight of mice were recorded every 2 days. The increment of tumor volume was calculated as luminescence intensities and normalized to the original value on the first day of measurement (Vt/V0). Body weight of mice in each group was documented. Nine days after the last injection, mice were sacrificed and the tumor, heart, liver, spleen, lung and kidney tissues were removed and used for the present study. Blood samples were collected from the orbital plexus into heparinized tubes and then centrifuged at 5,000 rpm for five minutes to separate the plasma. One portion of tumor, spleen and lymph nodes were collected for flow cytometric analysis. […]

Series [2] relates to CT26-FL3 cells. Briefly: HMGB1 release by immunofluorescence (ICD). The format is cell-based, murine. The procedure: (§1) CT26-FL3 cells were seeded in 35-mm cell culture dishes with glass bottom at the density of 2×10^5 per dish and incubated for 24 h before treatment. The cell culture medium was removed and replenished with different combination of Q and A containing media at the indicated concentrations for 4 h for CRT detection and for 8 h for HMGB1 detection. Cells were fixed and washed 3 times. A primary antibody, anti-CRT antibody (ab2907, 1:500, Abcam), diluted in cold blocking buffer (10% goat serum in PBS), was added for 60 min. After three washes in cold PBS, cells were then incubated for 60 min with the Alexa Fluor® 488 Goat Anti-Rabbit (IgG) (ab150077, 1:500, Abcam) diluted in a cold blocking buffer. Cells were fixed with 4% PFA for 20 min, and DAPI Mounting Medium was added for nuclear staining. For intracellular HMGB1 staining, cells were fixed and washed 3 times. Afterwards, cells were permeabilized with 0.1% Triton X-100 containing blocking buffer for 10 min, and rinsed three times with PBS, and nonspecific binding sites were blocked for 30 min A primary antibody for HMGB1 (ab79823, 1:500, Abcam) was added for 60 min. Cells were then incubated for 60 min with the Alexa Fluor® 488 Goat Anti-Rabbit (IgG) (ab150077, 1:500, Abcam) diluted in a cold blocking buffer. Cells were fixed with 4% PFA for 20 min, and DAPI Mounting Medium was added for nuclear staining. […]

Series [3] has as its system CT26-FL3 cells. The series is described as follows: CRT translocation by immunofluorescence (ICD). Particulars: free Q alone 0.07 μM, 4 h. The format is cell-based, murine. The procedure: as §1
The nature of series [4]: Maximum concentration of free drug in lecithin suspension (sink condition). The format is physicochemical. Particulars: lecithin suspension 100 mg/mL. The procedure: The release behaviors of Q and A from QA-M were investigated by a dialysis method. The QA-M (2 mL) was placed into a preswelled dialysis bag (cutting Mw 8000), which was then immersed into empty lecithin suspension (PC-98T, 100 mg/mL, 100 mL) at 37° C. for 72 hours under stirring at a speed of 100 rpm. The lecithin suspension was formed by film-hydration method followed by sonication and the size of this lecithin suspension was around 100 nm. Sink condition was confirmed by determination of the maximum concentration for free Q and A in the lecithin suspension, which was 0.5 mg/mL and 0.8 mg/mL, respectively. At different time points, 1.0 mL of sample was withdrawn from the release medium, mixed with methanol and measured for the Q and A using the HPLC method mentioned above. The release medium was replenished with an equal volume of fresh medium at 37° C. Sink condition was maintained throughout the experiment. All measurements were performed in triplicate, and the mean values and standard deviations are calculated.

Series [5] concerns CT26-FL3 cells. Briefly: MTT cytotoxicity and combination index (Chou and Talalay). The class given is cell-based, murine. Particulars: Mus musculus, 24 h incubation, read-out: IC50 of Q alone. The procedure: The cytotoxicity of free Q, free A and drugs combination against CT26-FL3 cells were assessed using the MTT (3-[4,5-dimethylthiazol-2-yl]-2,5-diphenyltetrazolium bromide) method. Zhang et al., 2017. Cells were seeded in 96-well plates (5×10^3 cells per well) and incubated for 24 h before treatment. Then the culture medium was withdrawn and fresh medium containing free drugs and drug combination with a series of concentration were added to each well. Following 24-h incubation, cell viability was determined by MTT assay. The synergy of Q and A was evaluated by using the Chou and Talalay method to calculate the combination index (CI). Zhang et al., 2014; Chou et al., 1984. CI was calculated by using the following equation (1): CI=(D)1/(Dx)1+(D)2/(Dx)2 (1) […]

Take `O=c1c(O)c(-c2ccc(O)c(O)c2)oc2cc(O)cc(O)c12` [Q-F, quercetin]: the tumor growth entry in series [1] is “very similar to that of QA-F”.
With `O=c1c(O)c(-c2ccc(O)c(O)c2)oc2cc(O)cc(O)c12` [Q, quercetin], the HMGB1 release entry with CT26-FL3 cells [2] (free Q alone 0.33 μM, 8 h) is listed as “minimum or undetectable effect”. The “release of HMGB1 compared to control group” value with CT26-FL3 cells [2] (single drug: Q 0.33 μM, A 1.3 μM) is “undetectable release”. For the same compound, the CRT translocation entry with CT26-FL3 cells [3] is “minimum or undetectable effect”. In addition, the “maximum concentration in the lecithin suspension” value in series [4] is recorded as 0.5 mg/mL. Moreover, the IC50 in the series on CT26-FL3 cells [5] stood at 148 µM.

Broadly, the IC50 is the concentration at which inhibition is half-maximal.
